What was measured:
Assay type in all cases: in vivo
Lolium multiflorum [1] = assay: Pre-emergence herbicidal action, LOLMU; conditions: for herbicidal activity LOLMU: dosage 320 g/ha, scored visually after 3 weeks vs untreated controls (100% = plants have died)
Excerpt: 1. Pre-Emergence Herbicidal Action Against Harmful Plants Seeds of monocotyledonous and dicotyledonous weed plants and crop plants are laid out in sandy loam soil in wood-fiber pots and covered with soil. The compounds of the invention, formulated in the form of wettable powders (WP) or as emulsion concentrates (EC), are then applied to the surface of the covering soil in the form of an aqueous suspension or emulsion at a water application rate equating to 600 to 800 l/ha, with addition of 0.2% wetting agent. After the treatment, the pots are placed in a greenhouse and kept under good growth conditions for the trial plants. The damage to the test plants is scored visually after a test period of 3 weeks by comparison with untreated controls (herbicidal activity in percent (%): 100% activity=the plants have died, 0% activity=like control plants). […] The tables below illustrate, in an exemplary manner, the […] herbicidal action of the compounds according to the invention, the herbicidal activity being stated in percent. [table] In the experiments that follow, herbicidal action of numerous inventive compounds and the known compounds that are structurally closest from D1 (WO 2012/028579 A1) and D2 (WO 2018/202535 A1) were compared under the above-specified conditions by the pre-emergence and post-emergence method. The example numbers given in the tables relate to the compounds disclosed in the respective documents. In addition to the compounds disclosed in D1 and D2, the following compounds V-1 to V-14 that are encompassed by D1 or D2 but are not compounds specified therein were used in the comparative experiments: • V-1: 2-(methylsulfanyl)-3-(methylsulfinyl)-N-(1-methyl-1H-tetrazol-5-yl)-4-(trifluoromethyl)benzamide • V-2: 2-(methylsulfanyl)-3-(methylsulfonyl)-N-(1-methyl-1H-tetrazol-5-yl)-4-(trifluoromethyl)benzamide • V-3: 2,3-bis(ethylsulfanyl)-N-(1-methyl-1H-tetrazol-5-yl)-4-(trifluoromethyl)benzamide • V-4: 2-chloro-3-(ethylsulfanyl)-N-(1-methyl-1H-tetrazol-5-yl)-4-(trifluoromethyl)benzamide • V-5: 2-chloro-4-iodo-3-(methylsulfanyl)-N-(1-methyl-1H-tetrazol-5-yl)benzamide • V-6: 2-chloro-4-iodo-3-(methylsulfinyl)-N-(1-methyl-1H-tetrazol-5-yl)benzamide • V-7: 2-chloro-4-iodo-3-(methylsulfonyl)-N-(1-methyl-1H-tetrazol-5-yl)benzamide • V-8: 2-bromo-3-(methylsulfanyl)-N-(1-methyl-1H-tetrazol-5-yl)-4-(trifluoromethyl)benzamide • V-9: 2-bromo-3-(methylsulfinyl)-N-(1-methyl-1H-tetrazol-5-yl)-4-(trifluoromethyl)benzamide • V-10: 2-bromo-3-(methylsulfonyl)-N-(1-methyl-1H-tetrazol-5-yl)-4-(trifluoromethyl)benzamide • V-11: 2-bromo-3-(ethylsulfanyl)-N-(1-methyl-1H-tetrazol-5-yl)-4-(trifluoromethyl)benzamide • V-12: 2-bromo-3-(ethylsulfinyl)-N-(1-methyl-1H-tetrazol-5-yl)-4-(trifluoromethyl)benzamide • V-13: 2-bromo-3-(ethylsulfonyl)-N-(1-methyl-1-1H-tetrazol-5-yl)-4-(trifluoromethyl)benzamide • V-14: 2-cyclopropyl-3-(ethylsulfanyl)-N-(1-methyl-1H-tetrazol-5-yl)-4-(trifluoromethyl)benzamide Herbicidal Pre-Emergence Action: […]

Matricaria inodora = assay: Pre-emergence herbicidal action, MATIN; design: key to Herbicidal action against MATIN: % activity: 100 = plants have died, 0 = like control plants; conditions: for herbicidal activity MATIN: dosage 320 g/ha, scored visually after 3 weeks vs untreated controls (100% = plants have died)
In short: (§1)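 Percent damage, assessed visually after 3 weeks and referenced to untreated controls, reflects a pre-emergence treatment. Spray liquid equated to 600 to 800 l/ha with 0.2% wetting agent, applied to the covering soil over seeds in sandy loam.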

Veronica persica = assay: Pre-emergence herbicidal action, VERPE; conditions: dosage 320 g/ha, scored visually after 3 weeks vs untreated controls (100% = plants have died)
In short: as §1

Lolium multiflorum [2] = assay: Post-emergence herbicidal action, LOLMU; design: key: % herbicidal action: 100 = plants died, 0 = like control
In short: (§2)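 One-leaf-stage weeds, raised from seed in greenhouse sandy loam, received a single foliar spray of compound as wettable powder or emulsion concentrate with 0.2% wetting agent added. Growth continued under optimal conditions for about 3 weeks before percent damage was scored by eye against controls.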

Pharbitis purpurea = assay: Pre-emergence herbicidal action, PHBPU; conditions: dosage 320 g/ha, scored visually after 3 weeks vs untreated controls (100% = plants have died)
In short: as §1

Cyperus esculentus = assay: Post-emergence herbicidal action, CYPES; design: key: % herbicidal action vs untreated; 100 = plants died, 0 = like control; conditions: for Herbicidal action against CYPES: comparative experiment, 5 g of a.i./ha
In short: as §2

Amaranthus retroflexus = assay: Post-emergence herbicidal action, AMARE; design: key: % herbicidal action vs untreated; 100 = plants died, 0 = like control; conditions: for Herbicidal action against AMARE: comparative experiment, 5 g of a.i./ha
In short: as §2

[3] = comparative experiment, 20 g of a.i./ha

Row | Compound | Herbicidal action against LOLMU (Lolium multiflorum [1]; [3]) | herbicidal activity LOLMU (Lolium multiflorum [1]) [%] | Herbicidal action against MATIN (Matricaria inodora; [3]) | herbicidal activity MATIN (Matricaria inodora) [%] | herbicidal activity VERPE (Veronica persica) [%] | herbicidal action LOLMU (Lolium multiflorum [2]; post-emergence, dosage 80 g/ha) [%] | herbicidal activity PHBPU (Pharbitis purpurea) [%] | Herbicidal action against CYPES (Cyperus esculentus; post-emergence) | herbicidal action CYPES (Cyperus esculentus; post-emergence, dosage 80 g/ha) [%] | herbicidal action AMARE (Amaranthus retroflexus; post-emergence, dosage 80 g/ha) [%] | herbicidal action LOLMU (Lolium multiflorum [2]; Dosage 80 g/ha) | herbicidal action CYPES (Cyperus esculentus; Dosage 80 g/ha) | herbicidal action AMARE (Amaranthus retroflexus; Dosage 80 g/ha) | Herbicidal action against AMARE (Amaranthus retroflexus; post-emergence)
1 | Cn1nnnc1NC(=O)c1ccc(C(F)(F)F)c(C[S+](C)[O-])c1Cl (racemic) [Example 1-297] | 30 | 100 | 100 | 100 | 100 | 100 | 90 | 60 | 80 | 90 | – | – | – | –
2 | Cc1c(C(=O)Nc2nnnn2C)ccc(C(F)(F)F)c1C[S+](C)[O-] (stereo not drawn) [Example 1-84] | – | – | – | 100 | 100 | 80 | 80 | – | 80 | 90 | – | – | – | –
3 | Cc1c(C(=O)Nc2nnnn2C)ccc(C(F)(F)F)c1CS(C)(=O)=O [Example 1-85] | – | – | – | 100 | 100 | – | – | – | – | – | 80 | 80 | 90 | –
4 | CSCc1c(C(F)(F)F)ccc(C(=O)Nc2nnnn2C)c1SC [Example 1-161] | – | 90 | – | 100 | 100 | – | – | – | – | – | – | 80 | 100 | –
5 | CSCc1c(C(F)(F)F)ccc(C(=O)Nc2nnnn2C)c1Cl [Example 1-296] | – | 90 | – | 100 | 100 | 90 | – | – | 90 | 100 | – | – | – | 60
6 | Cn1nnnc1NC(=O)c1ccc(C(F)(F)F)c(CS(C)(=O)=O)c1Cl [Example 1-298] | – | 90 | – | 100 | 100 | 80 | 90 | 60 | 90 | 100 | – | – | – | 100
7 | CSCc1c(C(F)(F)F)ccc(C(=O)Nc2nnnn2C)c1Br [Example 1-380] | – | – | – | 100 | 100 | 100 | 80 | – | – | 80 | – | – | – | –
8 | Cn1nnnc1NC(=O)c1ccc(C(F)(F)F)c(C[S+](C)[O-])c1Br (stereo not drawn) [Example 1-381] | – | – | – | 100 | 100 | 80 | 80 | – | 90 | 100 | – | – | – | –
9 | Cn1nnnc1NC(=O)c1ccc(Cl)c(CS(C)(=O)=O)c1Cl [Example 1-561] | – | 80 | – | 90 | 90 | – | – | – | – | – | – | 80 | 100 | –
10 | CCn1nnnc1NC(=O)c1ccc(C(F)(F)F)c(CSC)c1SC [Example 2-161] | – | 80 | – | 100 | 100 | – | – | – | 80 | 100 | – | – | – | –
11 | CCn1nnnc1NC(=O)c1ccc(C(F)(F)F)c(CSC)c1Br [Example 2-380] | – | – | – | 100 | 100 | 80 | 80 | – | – | 80 | – | – | – | –
12 | CCn1nnnc1NC(=O)c1ccc(C(F)(F)F)c(C[S+](C)[O-])c1Br (stereo not drawn) [Example 2-381] | – | 80 | – | 100 | 100 | 80 | 80 | – | – | 90 | – | – | – | –
13 | CCSCc1c(C(F)(F)F)ccc(C(=O)Nc2nnnn2CC)c1Br [Example 2-383] | – | 100 | – | 100 | 100 | 80 | – | – | – | 100 | – | – | – | –
14 | CCCn1nnnc1NC(=O)c1ccc(C(F)(F)F)c(CSCC)c1Br [Example 3-383] | – | 80 | – | 100 | 100 | – | – | – | – | – | – | – | 90 | –
15 | CCCn1nnnc1NC(=O)c1ccc(C(F)(F)F)c(CS(=O)(=O)CC)c1Br [Example 3-385] | – | 90 | – | 100 | 100 | – | – | – | – | – | – | – | 90 | –
